Laboratory results from patent publication US11906529B1, “Methods for treatment and diagnosis of endometriosis” (Marshall University Research Corporation, priority 2018, dated 2024).

Columns and labels:
EOOF5 cells = assay: xCELLigence cell index of primary endometrial cells treated with PF and/or drug; format: cell-based, human; conditions: for cell growth (% CI), PF and drug compared to PF alone: EOOF5 cells; for cell growth (% CI), PF and drug compared to PF alone / cell viability and growth in the presence of PF: 1% PF; for cell viability and growth in the presence of PF: human endometrial cells
Experimental: (§1) Cell treatment. Ishikawa cells (human endometrial cell line) or EOOF5 cells (primary endometrial cells from a patient without endometriosis, gift from Emory University) were cultured in T75 flasks in complete media (DMEM, 10% FCS, 1% P/S). Cells were treated with 1% PF (control and endo patients) in charcoal stripped media containing 0.1% FCS, for 48 hours. A subset of cells were also treated with GSK126 or EPZ-6438 (FIG. 15), at various concentrations for 24 hours. Cells were collected post-treatment for RNA (PCR) and protein analysis (Western blotting).
xCELLigence. EOOF5 cells (primary endometrial cells) was plated at 10,000 cells per well using xCELLigence technology. Plates that have gold electrodes attached to the bottom were utilized. The electrodes produce electrons, which interact with the solution, completing a circuit. As the number of adhered cells in the plate increases, the more this interferes with circuit completion. Cells were treated with either 1% control or endo PF alone or treated with PF for 24 hours before being treated with either 1 μM GSK, 2.5 μM GSK, or 2.5 μM EPZ. Cells were also treated with drug alone. % Cell Impedance (CI) was calculated compared to CF media.

EZH2 expression = assay: mRNA analysis on Ishikawa cells treated with PF and/or GSK 126; format: cell-based, human; conditions: depending on order of drug treatment, compared with control or endo PF alone
Experimental: as §1

Ishikawa cells = assay: Inhibitor study using MTT analysis on Ishikawa cells in the presence of PF; format: cell-based, human; conditions: 1% PF
Experimental: It was more than 1000 fold selective for EZH2 over other histone methyltransferases, including both SET-domain-containing and non-SET domain-containing methyltransferases, as shown schematically in FIG. 6A. […] In this regard, an inhibitor study using MTT analysis was conducted according to the schematic of FIG. 7A. Various doses of GSK126 were tested on Ishikawa cells in the presence of PF: 100 nM, 500 nM, 1 μM, 2.5 μM, 5 μM, and 10 μM in DMSO. Cell growth and viability of cells was evaluated rather than just EZH2 expression. (FIGS. 7B-7C) 1 mM and 0.1 mM solutions of GSK126 were also created from serial dilutions of 10 mM GSK126. […] It was somewhat unclear, however, whether that the effect of the drug as the volume of the vehicle (DMSO) could have impacted the results.
as §1

global trimethylation = conditions: reactivates silenced PRC2 genes; cited from earlier work

Compound | cell growth (% CI), PF and drug compared to PF alone (EOOF5 cells) | cell viability and growth in the presence of PF (EOOF5 cells) | EZH2 mRNA expression (EZH2 expression) | cell viability (Ishikawa cells; 500 nM, vehicle (DMSO) volume could have impacted the results) | cell growth (proliferation) (Ishikawa cells; GSK126 100 nM-10 μM in DMSO) | cell growth (% CI), drug added after PF pretreatment (EOOF5 cells; 1% PF first for 24 hours followed by drug for 48 hours) | % CI, drug first followed by PF (EOOF5 cells; GSK first for 24 hours, then 1% PF for another 48 hours) | global H2K37 trimethylation levels (global trimethylation)
CCN(c1cc(-c2ccc(CN3CCOCC3)cc2)cc(C(=O)NCc2c(C)cc(C)[nH]c2=O)c1C)C1CCOCC1 [EPZ-6438] | decrease in cell growth | concentration dependent decrease | – | – | – | – | – | –
CC[C@H](C)n1cc(C)c2c(C(=O)NCc3c(C)cc(C)[nH]c3=O)cc(-c3ccc(N4CCNCC4)nc3)cc21 [GSK 126] | decrease in cell growth | concentration dependent decrease | bidirectional effect | dip in viability | very little proliferation | able to lower the cell growth induced by PF | significant decrease in % CI | inhibit global H2K37 trimethylation levels
